{"source": "patent US9415055B2", "about": "“Cyclic amines” (H. Lundbeck A/S, priority 2012, dated 2016)", "data": [{"biological_target": "P2X7 receptor (Homo sapiens (Human), UniProt Q99572)", "sequence (Q99572 whole entry)": "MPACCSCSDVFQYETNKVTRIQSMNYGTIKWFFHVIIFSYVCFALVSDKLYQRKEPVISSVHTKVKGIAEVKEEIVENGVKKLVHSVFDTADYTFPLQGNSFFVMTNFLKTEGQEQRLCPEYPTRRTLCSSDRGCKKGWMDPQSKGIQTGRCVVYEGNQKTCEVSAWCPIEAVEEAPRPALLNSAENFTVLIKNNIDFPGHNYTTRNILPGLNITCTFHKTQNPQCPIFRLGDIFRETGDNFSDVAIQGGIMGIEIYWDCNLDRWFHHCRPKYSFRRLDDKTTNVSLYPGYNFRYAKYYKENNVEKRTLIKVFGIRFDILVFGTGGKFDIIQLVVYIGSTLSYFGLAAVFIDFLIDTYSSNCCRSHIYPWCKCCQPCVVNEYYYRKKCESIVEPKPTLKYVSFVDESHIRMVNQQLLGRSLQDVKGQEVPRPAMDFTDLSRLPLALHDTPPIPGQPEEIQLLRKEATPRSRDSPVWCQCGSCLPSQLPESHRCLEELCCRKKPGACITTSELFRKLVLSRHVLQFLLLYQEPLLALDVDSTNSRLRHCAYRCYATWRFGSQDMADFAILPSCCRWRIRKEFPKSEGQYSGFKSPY", "assay": "P2X7 FLIPR assay: antagonism of BzATP response in 293 HEK cells stably expressing P2X7 receptor", "format": "cell-based", "settings": "FLIPR fluorescence (Fluo-4), agonist BzATP, 293 HEK cells stably transfected with P2X7 receptor", "outline": "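Antagonist IC50 derived from FLIPR Tetra Fluo-4 calcium signal evoked by BzATP. Compound pre-incubation was 30 min at room temperature on P2X7-expressing HEK293 cells, seeded 24 h before in low-serum medium and dye-loaded 30 min at 37 °C then 30 min at RT.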", "units": {"IC50": "nM"}, "values": [{"compound": "CC1(C)CCN(C(CNC(=O)c2cccc(Cl)c2Cl)c2cnc(C(F)(F)F)nc2)CC1", "note": "(stereo not drawn) [2,3-dichloro-N-(2-(4,4-dimethylpiperidin-1-yl)-2-(2-(trifluoromethyl)pyrimidin-5-yl)ethyl)benzamide]", "IC50": 2500}, {"compound": "Cc1ncc(C(CNC(=O)c2ccc(Cl)cc2Cl)N2CCC(=O)CC2)cn1", "note": "(stereo not drawn) [2,4-dichloro-N-(2-(2-methylpyrimidin-5-yl)-2-(-1-yl)ethyl)benzamide]", "IC50": 970}, {"compound": "O=C(NCC(c1cnc(C(F)(F)F)nc1)N1CCOCC1)c1cccc(Cl)c1Cl", "note": "(stereo not drawn) [2,3-dichloro-N-[2-morpholino-2-[2-(trifluoromethyl)pyrimidin] [2,3-Dichloro-N-[2-morpholino-2-[2-(trifluoromethyl)pyrimidin-5-yl]ethyl]benzamide]", "IC50": 8.2}, {"compound": "Cc1ncc(C(CNC(=O)c2cccc(Cl)c2Cl)N2CCOCC2)cn1", "note": "(stereo not drawn) [2,3-dichloro-N-[2-(2-methylpyrimidin-5-yl)-2-morpholino-ethy] [2,3-Dichloro-N-[2-(2-methylpyrimidin-5-yl)-2-motpholino-ethyl]benzamide]", "IC50": 21}, {"compound": "COc1cccc(C(=O)NCC(c2ccc(C(F)F)nc2)N2CCC(F)(F)CC2)c1Cl", "note": "(single isomer, unassigned; (+)) [(+)2-chloro-N-[2-[6-(difluoromethyl)-3-pyridyl]-2-(4,4-diflu] [(+)2-chloro-3-methoxy-N-(2-(2-(difluoromethyl)pyridin-5-yl)-2-(4,4-difluoropiperidin-1-yl)ethyl)benzamide]", "IC50": 2.3}, {"compound": "Cc1ccc(C(CNC(=O)c2c(F)cccc2Cl)N2CCC(F)(F)CC2)cn1", "note": "(single isomer, unassigned; (-)) [(−)2-chloro-N-[2-(4,4-difluoro-1-piperidyl)-2-(6-methyl-3-py] [(−)2-chloro-N-(2-(4,4-difluoropiperidin-1-yl)-2-(6-methylpyridin-3-yl)ethyl)-6-fluorobenzamide]", "IC50": 22}, {"compound": "Cc1ncc(C(CNC(=O)c2ccccc2Cl)N2CCC(F)(F)CC2)cn1", "note": "(single isomer, unassigned; (-)) [(−)2-chloro-N-[2-(4,4-difluoro-1-piperidyl)-2-(2-methylpyrim] [(−)2-chloro-N-[2-(4,4-difluoro-1-piperidyl)-2-(2-methylpyrimidin-5-yl)ethyl]benzamide]", "IC50": 24}, {"compound": "Cc1ncc(C(CNC(=O)c2ccccc2Cl)N2CCCCC2)cn1", "note": "(single isomer, unassigned; (-)) [(−)2-chloro-N-[2-(2-methylpyrimidin-5-yl)-2-(1-piperidyl)eth] [(−)2-chloro-N-(2-(2-methylpyrimidin-5-yl)-2-(piperidin-1-yl)ethyl)benzamide]", "IC50": 120}, {"compound": "O=C(NCC(c1ccc(C(F)F)nc1)N1CCC(F)(F)CC1)c1ccccc1Cl", "note": "(single isomer, unassigned; (-)) [(−)2-chloro-N-[2-[6-(difluoromethyl)-3-pyridyl]-2-(4,4-diflu] [(−)2-chloro-N-(2-(2-(difluoromethyl)pyridin-5-yl)-2-(4,4-difluoropiperidin-1-yl)ethyl)benzamide]", "IC50": 12}, {"compound": "Cc1ncc(C(CNC(=O)c2cccc(Cl)c2Cl)N2CCC(F)CC2)cn1", "note": "(single isomer, unassigned; (+)) [(+)2,3-dichloro-N-[2-(4-fluoro-1-piperidyl)-2-(2-methylpyrim] [(+2,3-dichloro-N-(2-(4-fluoropiperidin-1-yl)-2-(2-methylpyrimidin-5-yl)ethyl)benzamide]", "IC50": 6.5}, {"compound": "Cc1ncc(C(CNC(=O)c2cccc(F)c2Cl)N2CCOCC2)cn1", "note": "(stereo not drawn) [2-chloro-3-fluoro-N-(2-(2-methylpyrimidin-5-yl)-2-morpholinoethyl)benzamide]", "IC50": 1200}, {"compound": "CS(=O)(=O)c1ccc(Cl)c(C(=O)NCC(c2ccc(C(F)(F)F)nc2)N2CCOCC2)c1", "note": "(single isomer, unassigned; (+)) [(+)2-chloro-5-methylsulfonyl-N-[2-morpholino-2-[6-(trifluoro] [(+)2-chloro-5-(methylsulfonyl)-N-(2-morpholino-2-(6-(trifluoromethyl)pyridin-3-yl)ethyl)benzamide]", "IC50": 71}, {"compound": "CCc1ncc(C(CNC(=O)c2ccccc2Cl)N2CCC(F)(F)CC2)cn1", "note": "(single isomer, unassigned; (-)) [(−)2-chloro-N-[2-(4,4-difluoro-1-piperidyl)-2-(2-ethylpyrimi] [(−)2-chloro-N-(2-(4,4-difluoropiperidin-1-yl)-2-(2-ethylpyrimidin-5-yl)ethyl)benzamide]", "IC50": 17}, {"compound": "Cc1ncc(C(CNC(=O)c2c(F)cccc2F)N2CCOCC2)cn1", "note": "(stereo not drawn) [2,6-difluoro-N-(2-(2-methylpyrimidin-5-yl)-2-morpholinoethyl)benzamide]", "IC50": 1100}, {"compound": "COc1ccc(C(CNC(=O)c2cccc(C)c2C)N2CCCCC2)cc1", "note": "(stereo not drawn) [N-[2-(4-Methoxy-phenyl)-2-piperidin-1-yl-ethyl]-2,3-dimethyl-benzamide]", "IC50": 420}, {"compound": "O=C(NCC(c1cnc(C2CC2)nc1)N1CCC(F)(F)CC1)c1cccc(Cl)c1Cl", "note": "(single isomer, unassigned; (-)) [(−)2,3-dichloro-N-[2-(2-cyclopropylpyrimidin-5-yl)-2-(4,4-di] [(−)2,3-dichloro-N-(2-(2-cyclopropylpyrimidin-5-yl)-2-(4,4-difluoropiperidin-1-yl)ethyl)benzamide]", "IC50": 3.5}, {"compound": "O=C(NCC(c1ccc(C(F)(F)F)nc1)N1CCOCC1)c1cccc(C(F)(F)F)c1Cl", "note": "(single isomer, unassigned; (+)) [(+)2-chloro-N-[2-morpholino-2-[6-(trifluoromethyl)-3-pyridyl] [(+)2-Chloro-N-[2-morpholino-2-[6-(trifluoromethyl)-3-pyridyl]ethyl]-3-(trifluoromethyl)benzamide]", "IC50": 24}, {"compound": "O=C(NCC(c1cnc(C2CC2)nc1)N1CCC(F)(F)CC1)c1c(Cl)cccc1Cl", "note": "(single isomer, unassigned; (+)) [(+)2,6-dichloro-N-(2-(2-cyclopropylpyrimidin-5-yl)-2-(4,4-difluoropiperidin-1-yl)ethyl)benzamide]", "IC50": 5.3}, {"compound": "O=C(NCC(c1cnc(C(F)F)nc1)N1CCOCC1)c1cccc(Cl)c1Cl", "note": "(single isomer, unassigned; (-)) [(−)2,3-dichloro-N-[2-[2-(difluoromethyl)pyrimidin-5-yl]-2-mo] [(−)2,3-dichloro-N-(2-(2-(difluoromethyl)pyrimidin-5-yl)-2-morpholinoethyl)benzamide]", "IC50": 9.6}, {"compound": "Cc1ccc(C(CNC(=O)c2cccc(Cl)c2Cl)N2CCOCC2)cn1", "note": "(single isomer, unassigned; (+)) [(+)2,3-Dichloro-N-[2-(6-methyl-3-pyridyl)-2-morpholino-ethyl]benzamide]", "IC50": 44}, {"compound": "N#Cc1ccc(Cl)c(C(=O)NCC(c2ccc(Cl)cc2)N2CCOCC2)c1", "note": "(single isomer, unassigned; (-)) [(−)2-chloro-N-[2-(4-chlorophenyl)-2-morpholino-ethyl]-5-cyan] [(−)2-chloro-N-(2-(4-chlorophenyl)-2-morpholinoethyl)-5-cyanobenzamide]", "IC50": 110}, {"compound": "Cc1cccc(C(=O)NCC(c2ccc(Cl)cc2)N2CCC(F)(F)CC2)c1C", "note": "(stereo not drawn) [N-[2-(4-Chloro-phenyl)-2-(4,4-difluoro-piperidin-1-yl)-ethyl]-2,3-dimethyl-benzamide]", "IC50": 3.6}, {"compound": "O=C(NCC(c1cnc(C(F)(F)F)nc1)N1CCC(F)(F)CC1)c1cccc(Cl)c1Cl", "note": "(stereo not drawn) [2,3-dichloro-N-(2-(4,4-difluoropiperidin-1-yl)-2-(2-(trifluoromethyl)pyrimidin-5-yl)ethyl)benzamide]", "IC50": 0.65}, {"compound": "O=C(NCC(c1ccc(C(F)(F)F)nc1)N1CCC(F)(F)CC1)c1cccc(F)c1Cl", "note": "(single isomer, unassigned; (+)) [(+)2-chloro-N-[2-(4,4-difluoro-1-piperidyl)-2-[6-(trifluorom] [(+)2-chloro-N-(2-(4,4-difluoropiperidin-1-yl)-2-(2-(trifluoromethyl)pyridin-5-yl)ethyl)-3-fluorobenzamide]", "IC50": 1.7}, {"compound": "Cn1cc(C(CNC(=O)c2ccccc2Cl)N2CCC(F)(F)CC2)cn1", "note": "(single isomer, unassigned; (+)) [(+)2-chloro-N-[2-(4,4-difluoro-1-piperidyl)-2-(1-methylpyraz] [(+)2-chloro-N-(2-(4,4-difluoropiperidin-1-yl)-2-(1-methyl-1H-pyrazol-4-yl)ethyl)benzamide]", "IC50": 180}, {"compound": "O=C(NCC(c1ccc(C(F)F)nc1)N1CCC(F)(F)CC1)c1ccccc1Cl", "note": "(single isomer, unassigned; (+)) [(+)2-chloro-N-[2-[6-(difluoromethyl)-3-pyridyl]-2-(4,4-diflu] [(+)2-chloro-N-(2-(2-(difluoromethyl)pyridin-5-yl)-2-(4,4-difluoropiperidin-1-yl)ethyl)benzamide]", "IC50": 9}, {"compound": "O=C(NCC(c1ccc(Cl)nc1)N1CCOCC1)c1cccc(Cl)c1Cl", "note": "(stereo not drawn) [2,3-Dichloro-N-[2-(6-chloro-3-pyridyl)-2-morpholino-ethyl]benzamide]", "IC50": 3.9}, {"compound": "O=C(NCC(c1cnc(C(F)(F)F)nc1)N1CCC(F)(F)CC1)c1c(F)cc(F)cc1Cl", "note": "(single isomer, unassigned; (+)) [(+)2-chloro-N-[2-(4,4-difluoro-1-piperidyl)-2-[2-(trifluorom] [(+)2-chloro-4,6-difluoro-N-(2-(4,4-difluoropiperidin-1-yl)-2-(2-(trifluoromethyl)pyrimidin-5-yl)ethyl)benzamide]", "IC50": 9.4}, {"compound": "O=C(NCC(c1cnc(C(F)(F)F)nc1)N1CCC(F)CC1)c1c(Cl)cccc1Cl", "note": "(single isomer, unassigned; (-)) [(−)2,6-dichloro-N-[2-(4-fluoro-1-piperidyl)-2-[2-(trifluorom] [(−)2,6-dichloro-N-(2-(4-fluoropiperidin-1-yl)-2-(2-(trifluoromethyl)pyrimidin-5-yl)ethyl)benzamide]", "IC50": 15}, {"compound": "O=C(NCC(c1cnc(C(F)F)nc1)N1CCOCC1)c1cccc(F)c1Cl", "note": "(single isomer, unassigned; (+)) [(+)2-chloro-N-[2-[2-(difluoromethyl)pyrimidin-5-yl]-2-morpho] [(+)2-chloro-3-fluoro-N-(2-(2-(difluoromethyl)pyrimidin-5-yl)-2-morpholinoethyl)benzamide]", "IC50": 4.8}]}]}
